From ChEMBL document CHEMBL1143150, “Design of azidoproline containing gluten peptides to suppress CD4+ T-cell responses associated with celiac disease” (Bioorg Med Chem, 2008)
Active and inactive are the calls of the source. The rule behind the calls is not given here. Numbered stars: 1 amine (or outer) side, 2 acyl side, 3 side chain; on linkers, the order of the positions; unused ones are H or OH. Square brackets hold non-standard residues; d marks the D form. Side chains are listed from the residue outwards. Peptide text beside a SMILES is read from it. * marks the point of attachment. X3 = O=C([C@@H]1C[C@@H](n2cc(C(=O)[*:3])nn2)CN1[*:1])[*:2]; X1 = O=C([C@@H]1C[C@H](n2cc(C(=O)[*:3])nn2)CN1[*:1])[*:2]; X5 = CNC(=O)c1cn([C@@H]2C[C@@H](C(=O)[*:2])N([*:1])C2)nn1; X6 = CNC(=O)c1cn([C@H]2C[C@@H](C(=O)[*:2])N([*:1])C2)nn1; X4 = [N-]=[N+]=N[C@@H]1C[C@@H](C(=O)[*:2])N([*:1])C1; Pro(cis-4-N3) = [N-]=[N+]=N[C@@H]1CN[C@H](C(=O)O)C1; pGlu = O=C1CC[C@@H](C(=O)O)N1; X2 = NC(=O)CCCC(=O)*

Tested on: not listed separately
Assay: Binding affinity to HLA-DQ2 expressed in EBV-transformed B cells
Assay type: cell-based
Settings: not given

| IC50 [µM] | SMILES |
| --- | --- |
| 8.6 | CC(C)C[C@H](NC(=O)[C@H](CCC(N)=O)NC(=O)[C@@H](N)CC(C)C)C(=O)N[C@@H](CCC(N)=O)C(=O)N1CCC[C@H]1C(=O)N[C@@H](Cc1ccccc1)C(=O)N1C[C@@H](N=[N+]=[N-])C[C@H]1C(=O)N[C@@H](CCC(N)=O)C(=O)N1CCC[C@H]1C(=O)N[C@@H](CCC(=O)O)C(=O)N[C@@H](CC(C)C)C(=O)N1CCC[C@H]1C(=O)N[C@@H](Cc1ccc(O)cc1)C(=O)N1CCC[C@H]1C(=O)N[C@@H](CCC(N)=O)C(=O)O |
| 9.4 | CC(C)C[C@H](NC(=O)CN)C(=O)N[C@@H](CCC(N)=O)C(=O)N1CCC[C@H]1C(=O)N[C@@H](Cc1ccccc1)C(=O)N1C[C@@H](N=[N+]=[N-])C[C@H]1C(=O)N[C@@H](CCC(N)=O)C(=O)N1CCC[C@H]1C(=O)N[C@@H](CCC(=O)O)C(=O)N[C@@H](CC(C)C)C(=O)N1CCC[C@H]1C(=O)N[C@@H](Cc1ccc(O)cc1)C(=O)N1CCC[C@H]1C(=O)N[C@@H](CCC(N)=O)C(=O)O (H-GLQPF[Pro(cis-4-N3)]QPELPYPQ-OH) |
| 6.9 | CC(C)C[C@H](NC(=O)[C@H](CCC(=O)O)NC(=O)[C@@H]1CCCN1C(=O)[C@H](CCC(N)=O)NC(=O)[C@@H]1C[C@H](N=[N+]=[N-])CN1C(=O)[C@H](Cc1ccccc1)NC(=O)[C@@H]1CCCN1C(=O)[C@H](CCC(N)=O)NC(=O)[C@@H](N)CC(C)C)C(=O)N1CCC[C@H]1C(=O)N[C@@H](Cc1ccc(O)cc1)C(=O)N1CCC[C@H]1C(=O)N[C@@H](CCC(N)=O)C(=O)O (H-LQPF[Pro(cis-4-N3)]QPELPYPQ-OH) |
| 17.2 | CC(C)C[C@H](NC(=O)[C@@H](N)CCC(N)=O)C(=O)N[C@@H](CCC(N)=O)C(=O)N1CCC[C@H]1C(=O)N[C@@H](Cc1ccccc1)C(=O)N1CCC[C@H]1C(=O)N[C@@H](CCC(N)=O)C(=O)N1CCC[C@H]1C(=O)N[C@@H](CCC(=O)O)C(=O)N[C@@H](CC(C)C)C(=O)N1CCC[C@H]1C(=O)N[C@@H](Cc1ccc(O)cc1)C(=O)O (H-QLQPFPQPELPY-OH) |
| 10.7 | CC(C)C[C@H](NC(=O)[C@@H](N)CCC(N)=O)C(=O)N[C@@H](CCC(N)=O)C(=O)N1CCC[C@H]1C(=O)N[C@@H](Cc1ccccc1)C(=O)N1C[C@@H](N=[N+]=[N-])C[C@H]1C(=O)N[C@@H](CCC(N)=O)C(=O)N1CCC[C@H]1C(=O)N[C@@H](CCC(=O)O)C(=O)N[C@@H](CC(C)C)C(=O)N1CCC[C@H]1C(=O)N[C@@H](Cc1ccc(O)cc1)C(=O)N1CCC[C@H]1C(=O)N[C@@H](CCC(N)=O)C(=O)O (H-QLQPF[Pro(cis-4-N3)]QPELPYPQ-OH) |
| 7.2 | CC(C)C[C@H](NC(=O)CCCC(N)=O)C(=O)N[C@@H](CCC(N)=O)C(=O)N1CCC[C@H]1C(=O)N[C@@H](Cc1ccccc1)C(=O)N1C[C@@H](N=[N+]=[N-])C[C@H]1C(=O)N[C@@H](CCC(N)=O)C(=O)N1CCC[C@H]1C(=O)N[C@@H](CCC(=O)O)C(=O)N[C@@H](CC(C)C)C(=O)N1CCC[C@H]1C(=O)N[C@@H](Cc1ccc(O)cc1)C(=O)N1CCC[C@H]1C(=O)N[C@@H](CCC(N)=O)C(=O)O (X2-LQPF[Pro(cis-4-N3)]QPELPYPQ-OH) |

Same assay, conditions: read-out: IC50

| IC50 [µM] | SMILES |
| --- | --- |
| 2.4 | CC(C)C[C@H](NC(=O)[C@@H]1CCC(=O)N1)C(=O)N[C@@H](CCC(N)=O)C(=O)N1CCC[C@H]1C(=O)N[C@@H](Cc1ccccc1)C(=O)N1CCC[C@H]1C(=O)N[C@@H](CCC(N)=O)C(=O)N1C[C@@H](N=[N+]=[N-])C[C@H]1C(=O)N[C@@H](CCC(=O)O)C(=O)N[C@@H](CC(C)C)C(=O)N1CCC[C@H]1C(=O)N[C@@H](Cc1ccc(O)cc1)C(=O)N1CCC[C@H]1C(=O)N[C@@H](CCC(N)=O)C(=O)O ([pGlu]LQPFPQ[Pro(cis-4-N3)]ELPYPQ-OH) |
| 2.3 | COC(=O)[C@H](Cc1ccccc1)NC(=O)c1cn([C@H]2C[C@@H](C(=O)N[C@@H](CCC(=O)O)C(=O)N[C@@H](CC(C)C)C(=O)N3CCC[C@H]3C(=O)N[C@@H](Cc3ccc(O)cc3)C(=O)N3CCC[C@H]3C(=O)N[C@@H](CCC(N)=O)C(=O)O)N(C(=O)[C@H](CCC(N)=O)NC(=O)[C@@H]3CCCN3C(=O)[C@H](Cc3ccccc3)NC(=O)[C@@H]3CCCN3C(=O)[C@H](CCC(N)=O)NC(=O)[C@H](CC(C)C)NC(=O)[C@@H]3CCC(=O)N3)C2)nn1 ([pGlu]LQPFPQ[X1]([Phe-OMe])ELPYPQ-OH) |
| 3.2 | COC(=O)[C@H](Cc1ccccc1)NC(=O)c1cn([C@@H]2C[C@@H](C(=O)N[C@@H](CCC(=O)O)C(=O)N[C@@H](CC(C)C)C(=O)N3CCC[C@H]3C(=O)N[C@@H](Cc3ccc(O)cc3)C(=O)N3CCC[C@H]3C(=O)N[C@@H](CCC(N)=O)C(=O)O)N(C(=O)[C@H](CCC(N)=O)NC(=O)[C@@H]3CCCN3C(=O)[C@H](Cc3ccccc3)NC(=O)[C@@H]3CCCN3C(=O)[C@H](CCC(N)=O)NC(=O)[C@H](CC(C)C)NC(=O)[C@@H]3CCC(=O)N3)C2)nn1 ([pGlu]LQPFPQ[X3]([Phe-OMe])ELPYPQ-OH) |
| 2.3 | CC(C)C[C@H](NC(=O)[C@@H]1CCC(=O)N1)C(=O)N[C@@H](CCC(N)=O)C(=O)N1CCC[C@H]1C(=O)N[C@@H](Cc1ccccc1)C(=O)N1CCC[C@H]1C(=O)N[C@@H](CCC(N)=O)C(=O)N1C[C@H](N=[N+]=[N-])C[C@H]1C(=O)N[C@@H](CCC(=O)O)C(=O)N[C@@H](CC(C)C)C(=O)N1CCC[C@H]1C(=O)N[C@@H](Cc1ccc(O)cc1)C(=O)N1CCC[C@H]1C(=O)N[C@@H](CCC(N)=O)C(=O)O ([pGlu]LQPFPQ[X4]ELPYPQ-OH) |
| 5.8 | CNC(=O)c1cn([C@@H]2C[C@@H](C(=O)N[C@@H](CCC(=O)O)C(=O)N[C@@H](CC(C)C)C(=O)N3CCC[C@H]3C(=O)N[C@@H](Cc3ccc(O)cc3)C(=O)N3CCC[C@H]3C(=O)N[C@@H](CCC(N)=O)C(=O)O)N(C(=O)[C@H](CCC(N)=O)NC(=O)[C@@H]3CCCN3C(=O)[C@H](Cc3ccccc3)NC(=O)[C@@H]3CCCN3C(=O)[C@H](CCC(N)=O)NC(=O)[C@H](CC(C)C)NC(=O)[C@@H]3CCC(=O)N3)C2)nn1 ([pGlu]LQPFPQ[X5]ELPYPQ-OH) |
| 9 | CNC(=O)c1cn([C@H]2C[C@@H](C(=O)N[C@@H](CCC(=O)O)C(=O)N[C@@H](CC(C)C)C(=O)N3CCC[C@H]3C(=O)N[C@@H](Cc3ccc(O)cc3)C(=O)N3CCC[C@H]3C(=O)N[C@@H](CCC(N)=O)C(=O)O)N(C(=O)[C@H](CCC(N)=O)NC(=O)[C@@H]3CCCN3C(=O)[C@H](Cc3ccccc3)NC(=O)[C@@H]3CCCN3C(=O)[C@H](CCC(N)=O)NC(=O)[C@H](CC(C)C)NC(=O)[C@@H]3CCC(=O)N3)C2)nn1 ([pGlu]LQPFPQ[X6]ELPYPQ-OH) |
| 3.2 | CC(C)C[C@H](NC(=O)[C@@H]1CCC(=O)N1)C(=O)N[C@@H](CCC(N)=O)C(=O)N1CCC[C@H]1C(=O)N[C@@H](Cc1ccccc1)C(=O)N1C[C@@H](N=[N+]=[N-])C[C@H]1C(=O)N[C@@H](CCC(N)=O)C(=O)N1CCC[C@H]1C(=O)N[C@@H](CCC(=O)O)C(=O)N[C@@H](CC(C)C)C(=O)N1CCC[C@H]1C(=O)N[C@@H](Cc1ccc(O)cc1)C(=O)N1CCC[C@H]1C(=O)N[C@@H](CCC(N)=O)C(=O)O ([pGlu]LQPF[Pro(cis-4-N3)]QPELPYPQ-OH) |
| 1.3 | COC(=O)[C@H](Cc1ccccc1)NC(=O)c1cn([C@H]2C[C@@H](C(=O)N[C@@H](CCC(N)=O)C(=O)N3CCC[C@H]3C(=O)N[C@@H](CCC(=O)O)C(=O)N[C@@H](CC(C)C)C(=O)N3CCC[C@H]3C(=O)N[C@@H](Cc3ccc(O)cc3)C(=O)N3CCC[C@H]3C(=O)N[C@@H](CCC(N)=O)C(=O)O)N(C(=O)[C@H](Cc3ccccc3)NC(=O)[C@@H]3CCCN3C(=O)[C@H](CCC(N)=O)NC(=O)[C@H](CC(C)C)NC(=O)[C@@H]3CCC(=O)N3)C2)nn1 ([pGlu]LQPF[X1]([Phe-OMe])QPELPYPQ-OH) |
| 29.2 | COC(=O)[C@H](Cc1ccccc1)NC(=O)c1cn([C@@H]2C[C@@H](C(=O)N[C@@H](CCC(N)=O)C(=O)N3CCC[C@H]3C(=O)N[C@@H](CCC(=O)O)C(=O)N[C@@H](CC(C)C)C(=O)N3CCC[C@H]3C(=O)N[C@@H](Cc3ccc(O)cc3)C(=O)N3CCC[C@H]3C(=O)N[C@@H](CCC(N)=O)C(=O)O)N(C(=O)[C@H](Cc3ccccc3)NC(=O)[C@@H]3CCCN3C(=O)[C@H](CCC(N)=O)NC(=O)[C@H](CC(C)C)NC(=O)[C@@H]3CCC(=O)N3)C2)nn1 ([pGlu]LQPF[X3]([Phe-OMe])QPELPYPQ-OH) |
| 5.5 | CC(C)C[C@H](NC(=O)[C@@H]1CCC(=O)N1)C(=O)N[C@@H](CCC(N)=O)C(=O)N1CCC[C@H]1C(=O)N[C@@H](Cc1ccccc1)C(=O)N1C[C@H](N=[N+]=[N-])C[C@H]1C(=O)N[C@@H](CCC(N)=O)C(=O)N1CCC[C@H]1C(=O)N[C@@H](CCC(=O)O)C(=O)N[C@@H](CC(C)C)C(=O)N1CCC[C@H]1C(=O)N[C@@H](Cc1ccc(O)cc1)C(=O)N1CCC[C@H]1C(=O)N[C@@H](CCC(N)=O)C(=O)O ([pGlu]LQPF[X4]QPELPYPQ-OH) |
| 5.8 | CNC(=O)c1cn([C@@H]2C[C@@H](C(=O)N[C@@H](CCC(N)=O)C(=O)N3CCC[C@H]3C(=O)N[C@@H](CCC(=O)O)C(=O)N[C@@H](CC(C)C)C(=O)N3CCC[C@H]3C(=O)N[C@@H](Cc3ccc(O)cc3)C(=O)N3CCC[C@H]3C(=O)N[C@@H](CCC(N)=O)C(=O)O)N(C(=O)[C@H](Cc3ccccc3)NC(=O)[C@@H]3CCCN3C(=O)[C@H](CCC(N)=O)NC(=O)[C@H](CC(C)C)NC(=O)[C@@H]3CCC(=O)N3)C2)nn1 ([pGlu]LQPF[X5]QPELPYPQ-OH) |
| 4.6 | CNC(=O)c1cn([C@H]2C[C@@H](C(=O)N[C@@H](CCC(N)=O)C(=O)N3CCC[C@H]3C(=O)N[C@@H](CCC(=O)O)C(=O)N[C@@H](CC(C)C)C(=O)N3CCC[C@H]3C(=O)N[C@@H](Cc3ccc(O)cc3)C(=O)N3CCC[C@H]3C(=O)N[C@@H](CCC(N)=O)C(=O)O)N(C(=O)[C@H](Cc3ccccc3)NC(=O)[C@@H]3CCCN3C(=O)[C@H](CCC(N)=O)NC(=O)[C@H](CC(C)C)NC(=O)[C@@H]3CCC(=O)N3)C2)nn1 ([pGlu]LQPF[X6]QPELPYPQ-OH) |

Tested on: T-cell
Assay: Blockade of HLA-DQ2 specific human CD4+ T cell proliferation in presence of alpha-9-gluten peptide after 48 hrs
Assay type: functional, cell-based
Settings: not given

| SMILES | Activity |
| --- | --- |
| COC(=O)[C@H](Cc1ccccc1)NC(=O)c1cn([C@H]2C[C@@H](C(=O)N[C@@H](CCC(N)=O)C(=O)N3CCC[C@H]3C(=O)N[C@@H](CCC(=O)O)C(=O)N[C@@H](CC(C)C)C(=O)N3CCC[C@H]3C(=O)N[C@@H](Cc3ccc(O)cc3)C(=O)N3CCC[C@H]3C(=O)N[C@@H](CCC(N)=O)C(=O)O)N(C(=O)[C@H](Cc3ccccc3)NC(=O)[C@@H]3CCCN3C(=O)[C@H](CCC(N)=O)NC(=O)[C@H](CC(C)C)NC(=O)[C@@H]3CCC(=O)N3)C2)nn1 ([pGlu]LQPF[X1]([Phe-OMe])QPELPYPQ-OH) | Active |
